Experimental data reported in the METLIN SMRT retention time set (Domingo-Almenara et al. 2019).

Assay: gradient 5% acetonitrile 3 min, to 50% in 2 min, to 85% in 15 min, held 3 min, 100 µL/min
Details: column: Zorbax Extend-C18 2.1 x 50 mm; eluents: water / acetonitrile, 0.1% formic acid
How it was run: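 Standards, all pure, were combined into mixtures of ~100 molecules and run at 100 μL/min on a Zorbax Extend-C18 column (2.1 × 50 mm, 1.8 μm) with water and acetonitrile, each containing 0.1% formic acid. A coupled quadrupole time-of-flight mass spectrometer operated in positive and negative ionization mode. Retention time values come from computationally picked adduct peaks, each inspected manually.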

Row | RP-LC retention time [s] | SMILES
1 | 1090 | COc1cc(-c2nnc(-c3ccc(C)c(S(=O)(=O)N4CCCCC4)c3)o2)cc(OC)c1OC
2 | 915 | CC(C)Cn1c(=O)c(C(=O)NCc2ccccc2)nc2cccnc21
3 | 874 | Cc1nc(C2CCOCC2)n(C2CCN(S(=O)(=O)c3c(C)c(C)cc(C)c3C)C2)n1 (configuration not stated)
4 | 842 | Cc1ccc(NC(=O)C2CCN(C(=O)c3ncn4c3COC(c3ccc(F)cc3)C4)CC2)c(Cl)c1 (configuration not stated)
5 | 636 | COCCC1CCN(C(=O)Cc2c(C)noc2C)CC1
6 | 985 | CCCn1ccc2sc(C)c(C(=O)NCc3ccc(Cl)cc3)c2c1=O
7 | 1300 | CC(C)c1ccc(NC(=O)c2cc3sc(Cl)cc3n2C)cc1
8 | 683 | COC(=O)CSc1nnc(CNC(=O)c2ccccc2F)n1Cc1ccccc1
9 | 1300 | O=S(=O)(c1cc(-c2cc(C(F)(F)F)on2)cs1)N1CCN(c2cccc(Cl)c2)CC1
10 | 688 | CC1CCN(C(=O)CCC(=O)N2CCN(c3nc4cccnc4s3)CC2)CC1
11 | 651 | Cc1ccccc1-c1nocc1CCC(=O)O
12 | 781 | CCOC(=O)c1c(C)[nH]c(C(=O)N2CCCC(C(=O)NCCc3ccco3)C2)c1C (configuration not stated)
13 | 656 | CCCNC(=O)N1CCN(Cc2nc3cccnc3n2-c2cc(C)cc(C)c2)CC1
14 | 619 | O=C(C1CCC(=O)N1S(=O)(=O)c1ccccc1)N1CCN(C2CCCCC2)CC1 (configuration not stated)
15 | 615 | CCOc1cc2c(cc1OCC)C1C(C(=O)NCCN3CCOCC3)c3ccccc3C(=O)N1CC2 (configuration not stated)
16 | 738 | CC(C)(C)NC(=O)Cn1ccn2nc(-c3ccc(F)cc3)c(CO)c2c1=O
17 | 740 | Cc1cccc2nnc(N3CCC(C(=O)NCc4ccc(C(F)(F)F)cc4)CC3)n12
18 | 949 | COc1ccc(-c2noc(Cc3nnc(-c4ccccc4)o3)n2)cc1OC
19 | 823 | COc1ccccc1N1CCN(c2cc(SCC(=O)NCc3ccccc3)ncn2)CC1
20 | 1100 | COc1ccc(N2CCN(c3cc(SCC(=O)Nc4ccc(F)cc4)ncn3)CC2)cc1
21 | 1360 | CCCOc1ccc(-c2noc(Cc3nc(-c4cccc(OC)c4)cs3)n2)cc1
22 | 721 | COc1ccc(S(=O)(=O)CC(=O)Nc2nnc(-c3cc(C)oc3C)o2)cc1

Row | RP-LC retention time [s] | SMILES
23 | 571 | CCN(CC)CCNC(=O)Cn1c(-c2ccccn2)nc2ccccc21
24 | 976 | COc1ccc(N2C(=O)C3N=NN(Cc4nc(-c5ccccc5C)no4)C3C2=O)cc1 (configuration not stated)
25 | 1200 | Cc1ccc(-c2nnc(-c3ccccc3Cl)o2)cc1S(=O)(=O)N1CCCCC1
26 | 993 | CC1(C(=O)NC2CCCCCCC2)CN(S(C)(=O)=O)CC(=O)N1Cc1ccc(Cl)cc1 (configuration not stated)
27 | 1280 | CCc1nc2cc(-c3noc(-c4ccccc4C)n3)ccc2o1
28 | 700 | Cc1ccc(-c2nnc(C)c(NCc3cccs3)n2)cc1
29 | 1290 | Cc1sc2ncnc(N3CCCC(C)C3)c2c1C(=O)Nc1ccc(Cl)cc1 (configuration not stated)
30 | 1070 | CCn1cc(-c2nc(C)c(C(=O)Nc3ccc(F)c(F)c3)s2)c2cccnc21
31 | 600 | O=C1C=C(N2CCNCC2)C(=O)c2c(O)ccc(O)c21
32 | 1230 | Cc1ccc(-c2noc(Cc3nnc(-c4ccc(C)c(C)c4)o3)n2)cc1C
33 | 570 | Cc1ccccc1CN1CCC2(CC1)CC(O)(c1ccccn1)CCO2 (configuration not stated)
34 | 664 | CC1CCN(CC2CCN(S(=O)(=O)c3ccccc3Cl)CC2)CC1
35 | 992 | Cc1cc(C)cc(Oc2nccn3c(=O)n(CC(=O)Nc4cccc(Cl)c4C)nc23)c1
36 | 751 | COCCN1CCC2(CC1)CN(Cc1ccc(Cl)c(F)c1)Cc1ccccc1O2
37 | 909 | COCC(=O)N(CC(=O)N1CCc2sccc2C1COc1ccc(Cl)cc1)C(C)C (configuration not stated)
38 | 795 | Cc1ccc(Nc2ncccc2S(N)(=O)=O)cc1
39 | 988 | Cc1ccc(C(=O)Nc2ccc(OCc3nnc(-c4ccccc4)o3)cc2)s1
40 | 823 | COc1ccc2nc(C(=O)NCc3cc(F)ccc3F)cn2n1
41 | 640 | O=C(Nc1cccc(-c2nnc3n2CCCC3)c1)c1ccoc1
42 | 612 | CCN(CC)C(=O)N1CC(n2cc(C(=O)N3CCOCC3)nn2)C1
43 | 790 | COc1ccc(NC(=O)N2C[C@@H](F)C[C@H]2C(=O)N2CCc3ccccc3C2)c(OC)c1
44 | 920 | COC(=O)C1=CN(c2ccc(C)c(F)c2)c2ccc(F)cc2S1(=O)=O

Row | RP-LC retention time [s] | SMILES
45 | 860 | COc1ccc(NC(=O)C2CN(S(C)(=O)=O)CC23CCCCC3)c(OC)c1 (configuration not stated)
46 | 676 | O=S(=O)(c1cccc(F)c1)N1CC(c2noc(C3CCCN3CC3CC3)n2)C1 (configuration not stated)
47 | 674 | O=C(Nc1ccc2c(c1)OCO2)C1CCCN(c2ccnc(-c3ccc(F)cc3)n2)C1 (configuration not stated)
48 | 860 | Cn1nc(-c2nc(C3CC3)no2)c2c1CCN(C(=O)c1cc(F)ccc1F)C2
49 | 1220 | CCc1nc2cc(-c3noc(-c4cc(Cl)ccc4OC)n3)ccc2o1
50 | 731 | CCc1nncn1C1CCN(S(=O)(=O)c2ccc(C)c(C)c2)CC1
51 | 627 | CCN(CCNC(=O)c1cccc2c1SCCC2=O)Cc1ccccc1
52 | 664 | COc1ccc(NC(=O)N2CC(N(C3CCOCC3)S(C)(=O)=O)C2)c(C)c1
53 | 726 | COc1ccc(-c2nc(-n3c(C)c4c(C)nnc(C)c4c3C)sc2C)cc1
54 | 702 | Cc1nc(N2CCOCC2)c2c(C(=O)NCc3ccc(F)cc3)c(C)oc2n1
55 | 798 | CCc1ccc(S(=O)(=O)N2CCC3(CC2)NCCN=C3NCc2cc(F)cc(F)c2)cc1
56 | 791 | Cc1cc(NC(=O)CC2COc3ccccc3NC2=O)ccc1Br (configuration not stated)
57 | 647 | Cc1ccc(-c2ccc(N3CCCC(C(=O)N4CCCC4)C3)nn2)cc1 (configuration not stated)
58 | 946 | Cc1ccc(N2CC(c3noc(-c4cccs4)n3)CC2=O)cc1 (configuration not stated)
59 | 798 | COc1ccc(Cl)cc1NC(=O)C1(C)Oc2cccnc2NC1=O (configuration not stated)
60 | 798 | CC1=C(c2ccc(F)cc2)S(=O)(=O)N=C1N1CCC(C(=O)NC2CCCC2)CC1
61 | 752 | Cc1cc(C)n2nc(SCC(=O)NC3CCC(C)CC3)nc2n1 (configuration not stated)
62 | 923 | CCN1C(=O)COc2ccc(-c3noc(Cc4ccc(OC)c(OC)c4)n3)cc21
63 | 1130 | Cc1cc(C)n2c(Nc3ccccc3)c(-c3cccc(Cl)c3)nc2n1
64 | 798 | Cc1cc(C)c(Nc2ccnc(Nc3ccc(C#N)cc3)n2)c(C)c1
65 | 604 | O=C1CC(NC(=O)c2cc(-c3ccc(F)cc3)n[nH]2)CN1 (configuration not stated)
66 | 781 | COc1cccc(NC(=O)C2CCCN(c3ncnc4c3nc3n4CCCCC3)C2)c1 (configuration not stated)

Row | SMILES | RP-LC retention time [s]
67 | CC(C)(C)OC(=O)NC1[C@H]2CNC[C@@H]12 (some centres not stated) | 609
